The values below come from ChEMBL document CHEMBL4385641 (Bioorg Med Chem, 2019).

Test [1] deals with T1, Cannabinoid receptor 1 (Homo sapiens, UniProt P21554). Description: Inverse agonist activity at human CB1 receptor expressed in CHOK1 cells co-expressing Galphaq16 assessed as apparent equilibrium constant after 90 secs by […]-4 AM dye-based FLIPR assay. Format: cell-based.
Test [2] is filed under the species Homo sapiens. Description: Selectivity ratio of Ki for displacement of [3H]-CP55940 from human CB2 receptor expressed in CHO cell membranes to Ki for displacement of [3H]-CP55940 from human CB1 receptor expressed in CHO cell membranes. On the technique in general: Displacement assays read how much labelled ligand stays bound in the presence of the test substance.

Test [3] has as its target Cannabinoid receptor 2 (Homo sapiens, UniProt P34972). Description: Displacement of [3H]-CP55940 from human CB2 receptor expressed in CHO cell membranes.
Test [4] addresses T1, Cannabinoid receptor 1. Description: Displacement of [3H]-CP55940 from human CB1 receptor expressed in CHO cell membranes.

T1 sequence (P21554 whole entry): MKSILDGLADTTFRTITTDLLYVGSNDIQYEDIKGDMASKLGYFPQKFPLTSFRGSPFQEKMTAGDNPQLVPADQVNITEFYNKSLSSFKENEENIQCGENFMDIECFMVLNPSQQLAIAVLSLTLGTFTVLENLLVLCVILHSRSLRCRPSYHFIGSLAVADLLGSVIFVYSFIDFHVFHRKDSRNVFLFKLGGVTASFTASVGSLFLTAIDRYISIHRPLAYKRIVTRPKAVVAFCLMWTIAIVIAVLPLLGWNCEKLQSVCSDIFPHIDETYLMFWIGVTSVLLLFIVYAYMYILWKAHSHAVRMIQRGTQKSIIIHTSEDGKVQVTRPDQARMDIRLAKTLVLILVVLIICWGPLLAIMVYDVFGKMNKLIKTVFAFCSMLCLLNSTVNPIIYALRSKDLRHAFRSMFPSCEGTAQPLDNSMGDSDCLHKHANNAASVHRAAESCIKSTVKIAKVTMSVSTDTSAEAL
Cannabinoid receptor 2, sequence (P34972 whole entry): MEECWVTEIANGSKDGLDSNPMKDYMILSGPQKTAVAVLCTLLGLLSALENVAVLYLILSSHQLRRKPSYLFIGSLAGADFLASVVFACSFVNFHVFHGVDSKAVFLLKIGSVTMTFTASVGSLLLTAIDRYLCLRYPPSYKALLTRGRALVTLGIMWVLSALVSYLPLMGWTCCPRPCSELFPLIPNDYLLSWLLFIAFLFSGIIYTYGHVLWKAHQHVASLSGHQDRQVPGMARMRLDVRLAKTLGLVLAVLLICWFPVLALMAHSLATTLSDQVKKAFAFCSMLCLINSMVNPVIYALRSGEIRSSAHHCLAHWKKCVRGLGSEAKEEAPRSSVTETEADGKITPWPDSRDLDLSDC

As to `Cn1cc(-n2c(-c3ccccc3Cl)nc3c(N4CCC(NS(=O)(=O)c5ccc(F)c(F)c5)CC4)ncnc32)cn1`, the Ke(app) in test [1] is 140 nM.

As to `CC(C)(C)CC(=O)NC1CCN(c2ncnc3c2nc(-c2ccccc2Cl)n3-c2ccc(Cl)cc2)CC1`, the Ratio Ki in test [2] was found to be 75. In addition, the values for the Ki in test [3] and in test [4] were 15 nM and 0.2 nM, respectively. The Ke(app) in test [1] is 0.3 nM.

On to `Cc1cc(-n2c(-c3ccccc3Cl)nc3c(N4CCC(NS(=O)(=O)c5ccc(F)c(F)c5)CC4)ncnc32)no1`, for which, in test [2], the Ratio Ki was over 20. For the same compound, the Ki (as a rule, a measure of affinity in units of concentration, obtained from inhibition or displacement) is over 10000 nM in test [3] and 420 nM in test [4]. Also, in test [1], the Ke(app) is 56 nM.

Consider `CC(C)(O)CC(=O)NC1CCN(c2ncnc3c2nc(-c2ccccc2Cl)n3-c2ccc(Cl)cc2)CC1`, for which, in test [1], the Ke(app) is 1700 nM.

As to `O=C(CN1CCOCC1)NC1CCN(c2ncnc3c2nc(-c2ccccc2Cl)n3-c2ccc(Cl)cc2)CC1`, the Ke(app) in test [1] was 1100 nM.

Regarding `O=S(=O)(NC1CCN(c2ncnc3c2nc(-c2ccccc2Cl)n3-c2ccc(C(F)(F)F)nc2)CC1)c1ccc(F)c(F)c1`, the Ratio Ki in test [2] is over 600. The Ki was over 6000 nM in test [3] and 10 nM in test [4]. In addition, in test [1], the Ke(app) was 1 nM.

For `O=C(NC1CCN(c2ncnc3c2nc(-c2ccccc2Cl)n3-c2ccc(Cl)cc2)CC1)C1CCS(=O)(=O)CC1`, in test [1], the Ke(app) is over 10000 nM.

As for `CN1CCC(COC(=O)NC2CCN(c3ncnc4c3nc(-c3ccccc3Cl)n4-c3ccc(Cl)cc3)CC2)CC1`, in test [1], the Ke(app) is 1500 nM.

In the case of `Fc1ccc(CNC2CCN(c3ncnc4c3nc(-c3ccccc3Cl)n4-c3ccc(Cl)cc3)CC2)cc1`, the Ke(app) in test [1] is 210 nM.

`Clc1ccc(-n2c(-c3ccccc3Cl)nc3c(N4CCC(Nc5ncccn5)CC4)ncnc32)cc1`: in test [1], the Ke(app) was 43 nM.

For the compound `Cn1nnnc1CCC(=O)NC1CCN(c2ncnc3c2nc(-c2ccccc2Cl)n3-c2ccc(Cl)cc2)CC1`, the Ke(app) in test [1] is over 10000 nM.

Take `O=S(=O)(NC1CCN(c2ncnc3c2nc(-c2ccccc2Cl)n3-c2ccc(C(F)(F)F)nc2)CC1)c1ccccc1F`: in test [2], the Ratio Ki amounted to 100. The Ki in test [3] turned out to be 400 nM; in test [4] it was 4 nM. Moreover, the Ke(app) in test [1] was 0.5 nM.

`O=C(CC1CCOCC1)NC1CCN(c2ncnc3c2nc(-c2ccccc2Cl)n3-c2ccc(Cl)cc2)CC1`: the Ke(app) in test [1] is 510 nM.

With `O=C(NC1CCN(c2ncnc3c2nc(-c2ccccc2Cl)n3-c2ccc(Cl)cc2)CC1)c1ccccn1`, in test [1], the Ke(app) was 140 nM.

On to `O=C(NC1CCN(c2ncnc3c2nc(-c2ccccc2Cl)n3-c2ccc(Cl)cc2)CC1)C1CCOC1` (stereo not given), for which, in test [1], the Ke(app) was 150 nM.

As for `O/N=C(\c1ccc(F)cc1)C1CCN(c2ncnc3c2nc(-c2ccccc2Cl)n3-c2ccc(Cl)cc2)CC1` (stereo in doubt; 20), the Ratio Ki in test [2] was over 2000. In addition, the Ke(app) in test [1] was 20 nM.

Consider `O=C(CN1CCCCC1)NC1CCN(c2ncnc3c2nc(-c2ccccc2Cl)n3-c2ccc(Cl)cc2)CC1`, for which the Ke(app) in test [1] was 220 nM.

As to `Nc1ccc(-n2c(-c3ccccc3Cl)nc3c(N4CCC(NS(=O)(=O)c5ccc(F)c(F)c5)CC4)ncnc32)cn1`, the Ke(app) in test [1] was over 10000 nM.

For `Cn1ccc(-n2c(-c3ccccc3Cl)nc3c(N4CCC(NS(=O)(=O)c5ccc(F)c(F)c5)CC4)ncnc32)n1`, in test [1], the Ke(app) was 120 nM.

`Clc1ccc(-n2c(-c3ccccc3Cl)nc3c(N4CCC(NCc5ccncc5)CC4)ncnc32)cc1`: the Ke(app) in test [1] is 580 nM.

On to `O=C(NC1CCN(c2ncnc3c2nc(-c2ccccc2Cl)n3-c2ccc(Cl)cc2)CC1)OC1CCC1`, for which, in test [2], the Ratio Ki came to 1800. For the same compound, the values for the Ki in test [3] and in test [4] were 1050 nM and 0.6 nM, respectively. In test [1], the Ke(app) is 1 nM.

As for `CC(=O)Nc1ccc(-n2c(-c3ccccc3Cl)nc3c(N4CCC(NS(=O)(=O)c5ccc(F)c(F)c5)CC4)ncnc32)cn1`, the Ke(app) in test [1] was 2700 nM.

As for `O=C(NC1CCN(c2ncnc3c2nc(-c2ccccc2Cl)n3-c2ccc(Cl)cc2)CC1)C1CCSCC1`, the Ratio Ki in test [2] worked out at 630. The figures for the Ki in test [3] and in test [4] were 1900 nM and 3 nM, respectively. The Ke(app) in test [1] is 26 nM.

For `O=C(NC1CCN(c2ncnc3c2nc(-c2ccccc2Cl)n3-c2ccc(Cl)cc2)CC1)OC1CCOCC1`, in test [1], the Ke(app) is 320 nM.

Consider `Clc1ccc(-n2c(-c3ccccc3Cl)nc3c(N4CCC(Nc5ccncc5)CC4)ncnc32)cc1`, for which, in test [1], the Ke(app) is 100 nM.

Take `Clc1ccc(-n2c(-c3ccccc3Cl)nc3c(N4CCC(c5nc6ccccc6[nH]5)CC4)ncnc32)cc1`: the Ratio Ki in test [2] came to 18. Besides, the Ki in test [3] stood at 830 nM. Also, in test [1], the Ke(app) was 12 nM.

On to `O=S(=O)(NC1CCN(c2ncnc3c2nc(-c2ccccc2Cl)n3-c2ccc(OC(F)F)nc2)CC1)c1ccccc1F`, for which the Ratio Ki in test [2] worked out at 120. The results for the Ki in test [3] and in test [4] were 190 nM and 1.6 nM, respectively. In addition, the Ke(app) in test [1] is 0.7 nM.

Take `NC(=O)c1ccc(-n2c(-c3ccccc3Cl)nc3c(N4CCC(NS(=O)(=O)c5ccc(F)c(F)c5)CC4)ncnc32)cc1`: in test [1], the Ke(app) was 330 nM.

In the case of `O=C(NC1CCN(c2ncnc3c2nc(-c2ccccc2Cl)n3-c2ccc(Cl)cc2)CC1)OC1COC1`, the Ke(app) in test [1] is 92 nM.

As to `CN(Cc1ccc(F)cc1)C1CCN(c2ncnc3c2nc(-c2ccccc2Cl)n3-c2ccc(Cl)cc2)CC1`, the Ke(app) in test [1] is 460 nM.

With `O=C(NC1CCN(c2ncnc3c2nc(-c2ccccc2Cl)n3-c2ccc(Cl)cc2)CC1)OCc1ccccc1`, the Ratio Ki in test [2] is 180. Moreover, the Ki worked out at 710 nM in test [3] and 4 nM in test [4]. Moreover, the Ke(app) in test [1] is 3 nM.

As for `O=S(=O)(NC1CCN(c2ncnc3c2nc(-c2ccccc2Cl)n3-c2cc(C(F)(F)F)[nH]n2)CC1)c1ccc(F)c(F)c1`, the Ke(app) in test [1] was 5000 nM.

As to `CS(=O)(=O)CCC(=O)NC1CCN(c2ncnc3c2nc(-c2ccccc2Cl)n3-c2ccc(Cl)cc2)CC1`, in test [1], the Ke(app) is 6000 nM.

For `O=C(NC1CCN(c2ncnc3c2nc(-c2ccccc2Cl)n3-c2ccc(Cl)cc2)CC1)C1CCOCC1`, in test [1], the Ke(app) is 440 nM.

With `O=C(CC1CCOC1)NC1CCN(c2ncnc3c2nc(-c2ccccc2Cl)n3-c2ccc(Cl)cc2)CC1` (stereo not given), the Ke(app) in test [1] was 1000 nM.

Take `COCCC(=O)NC1CCN(c2ncnc3c2nc(-c2ccccc2Cl)n3-c2ccc(Cl)cc2)CC1`: the Ke(app) in test [1] is 370 nM.

On to `CCOCC(=O)NC1CCN(c2ncnc3c2nc(-c2ccccc2Cl)n3-c2ccc(Cl)cc2)CC1`, for which, in test [1], the Ke(app) was 240 nM.

For the compound `CN(Cc1ccccc1)C1CCN(c2ncnc3c2nc(-c2ccccc2Cl)n3-c2ccc(Cl)cc2)CC1`, in test [2], the Ratio Ki stood at 64. For the same compound, the Ki in test [3] came to 2700 nM. Also, the Ke(app) in test [1] was 34 nM.

As to `O=C(NC1CCN(c2ncnc3c2nc(-c2ccccc2Cl)n3-c2ccc(Cl)cc2)CC1)OCC1COC1`, the Ke(app) in test [1] is 77 nM.

With `O=S(=O)(NC1CCN(c2ncnc3c2nc(-c2ccccc2Cl)n3-c2ccc(F)cc2)CC1)c1ccccc1F`, the Ratio Ki in test [2] is over 3000. The Ki is over 10000 nM in test [3] and 2.6 nM in test [4]. For the same compound, in test [1], the Ke(app) is 21 nM.

For `Clc1ccc(-n2c(-c3ccccc3Cl)nc3c(N4CCC(NCc5ccccc5)CC4)ncnc32)cc1`, in test [1], the Ke(app) is 150 nM.

Consider `O/N=C(\c1ccc(F)cc1)C1CCN(c2ncnc3c2nc(-c2ccccc2Cl)n3-c2ccc(Cl)cc2)CC1` (stereo in doubt; 21), for which the Ratio Ki in test [2] was over 1400. Besides, the Ke(app) in test [1] is 21 nM.
